The text below walks through data of US7781402B2, “Methods and implantable devices for treating supraventricular arrhythmias” (Closed Loop Therapies Ltd., priority 2004, dated 2010).

A value given as a limit tells only on which side of the number the result lay.

In series [1] the test system is stroke. Conditions: people with atrial fibrillation; cited from earlier work.
The subject of series [2] is recent-onset atrial fibrillation. Conditions: phase 3 trial; cited from earlier work.
Series [3] deals with atrial tachycardia. The series can be described thus: Termination of induced atrial tachycardia in anesthetized Wistar rats (ECG). The series is classed as in vivo. As for the experimental part: The effect of rapidly hydrolysable cholinergic receptor agonists (RHCA) on supraventricular arrhythmia was tested in anesthetized Wistar rats, as follows.
(§1) Induction of atrial tachycardia, atrial fibrillation and atrial flutter in rats—Wistar rats of either sex weighing 450-550 g were used in this study. Rats were anesthetized and atrial tachycardia, atrial fibrillation, or atrial flutter were induced by cardiac stimulation using a programmable stimulator with an isolated constant-current source. Stimuli of rectangular pulses of 2 milliseconds (ms) duration at three times diastolic threshold were delivered via transesophageal bipolar catheter positioned optimally to stimulate the atria. Double and triple extra stimulation techniques or a minimal coupling interval of 10 ms were performed in an attempt to induce atrial arrhythmias. Atrial burst pacing at intervals of 40 to 80 ms was also performed to induce atrial arrhythmias.
(§2) Electrocardiogram (ECG) recording—The surface six-lead ECG was continuously recorded from subcutaneous 25-gauge electrodes in each limb of the animal. The ECG channels were amplified (0.1-0.5 mV/cm) and filtered between 0.5-250 Hz. The ECG variables were calculated according to standard criteria.
(§3) Rapidly hydrolysable cholinergic receptor agonists (RHCA)—The RHCA were injected either through the tail vein or directly into the right ventricular cavity of rats with induced atrial fibrillation, atrial flutter or atrial tachycardia. The RHCA used in the present study was acetylcholine (ACh). […]

For series [4], the system named is atrial flutter. The series can be described thus: Termination of induced atrial flutter in anesthetized Wistar rats (ECG). Type of series: in vivo. Particulars: nine rats, 0.02-0.3 mg/kg via tail vein.
Text: as §1, §2, §3

For series [5], the system named is atrial fibrillation. Kind of series: Termination of induced atrial fibrillation in anesthetized Wistar rats (ECG). The series is classed as in vivo.
Text: as §1, §2
Rapidly hydrolysable cholinergic receptor agonists (RHCA)—The RHCA were injected either through the tail vein or directly into the right ventricular cavity of rats with induced atrial fibrillation, atrial flutter or atrial tachycardia. The RHCA used in the present study was acetylcholine (ACh). ACh was dissolved at a concentration of either 1 mg/ml or 0.1 mg/ml in 0.9% NaCl solution and was injected either to the tail vein at a dosage of 0.2 mg/kg body weight, or to the right ventricle at a dosage of 0.02 mg/kg body weight.
Atrial fibrillation was elicited in rats as described in Example 1, hereinabove.

Series [6] relates to atrial fibrillation. Described as above. Type of series: in vivo. The source holds these as a separate data set.
Series [7] deals with arrhythmia induction. Particulars: wild type and M1 cholinergic receptor knockout mice; cited from earlier work.
Setting [8] is: 0.02 mg/kg into right ventricular cavity, FIG. 2b.
[9] abbreviates: 0.2 mg/kg via tail vein, FIG. 2a.
[10] abbreviates: bolus injection into the right ventricular cavity.
Where [11] appears, read: bolus injection into the tail vein.
The mark [12] stands for this setting: 0.2 mg/kg through the tail vein, FIG. 5.
[13] abbreviates: RHCA into right ventricular cavity, n=10, FIG. 4.
The mark [14] stands for this setting: bolus injection 0.04-0.2 mg/kg body weight.

For the compound `CC(=O)CC(c1ccccc1)c1c(O)c2ccccc2oc1=O` (stereo not shown) [Coumadin, warfarin], the “reduction of the risk of stroke” value in series [1] is 60-80%.

`COc1ccc(CCO[C@@H]2CCCC[C@H]2N2CC[C@@H](O)C2)cc1OC` [RSD1235]: the “conversion of recent-onset atrial fibrillation to sinus rhythm” value in series [2] is reported as “demonstrated its effectiveness to convert recent-onset atrial fibrillation to sinus rhythm”.

For the compound `CC(=O)OCC[N+](C)(C)C` [acetylcholine], the “time of complete AV node conduction recovery following RHCA administration” value in series [3] (0.02 mg/kg into right ventricular cavity) is listed as “about 6 seconds”. Also, the “period of cardiac arrest after termination” value in series [3] (setting [8]) stood at 1.25 s. In series [3] (setting [8]), the “time until AV conduction completely recovered” value was “about 4.5 sec”. Besides, the “time to termination of atrial tachycardia” value was 0.5 s in series [3] (0.02 mg/kg into right ventricular cavity, example rat (FIG. 2b)); 0.5 to 15 s in series [3] (0.02 or 0.2 mg/kg via right ventricular cavity or tail vein, respectively); 0.5 to 10.5 s in series [3] (setting [10]); 2 to 15 s in series [3] (setting [11]). The “duration of high degree AV block” value in series [3] (0.02 mg/kg into right ventricular cavity, following acetylcholine hydrolysis) was found to be 2.5 s. Besides, in series [3] (0.2 mg/kg body weight via tail vein, representative rat (FIG. 2a)), the “lag to termination of atrial tachycardia” value was found to be 2.6 s. Besides, the “time for sinus rhythm to reach its pre-arrhythmic value” in series [3] (0.2 mg/kg via tail vein) is on record as “about 1 minute”. Also, the “P-P interval immediately following RHCA administration” value in series [3] (setting [9]) amounted to 650 ± 3 ms. The “R-R interval immediately following RHCA administration” value in series [3] (setting [9]) was found to be 652 ± 3 ms. The “additional time to restore normal rhythm” value in series [3] (setting [10]), in series [3] (setting [11]), in series [5] (setting [10]), in series [5] (setting [11]) and in series [6] (setting [14]) was 1 to 5 s in each case. In series [3] (injection into right ventricular cavity), the “time until cardiac arrest, escape rhythm, AV block and sinus bradycardia all disappear” value was ≤ 15 s. Further, the “time to conversion to sinus rhythm” value in series [3] (ten rats, 0.02-0.2 mg/kg via tail vein) lay within 2 to 5 s; in series [4], 2 to 5 s. Also, the “additional time until SA and AV nodes / AV conduction recovered” value in series [5] (setting [12]) came out at 1.5 s. For the same compound, the “time to termination of atrial fibrillation” value in series [5] (setting [12]) was ≤ 9.8 s; in series [5] (setting [14]) it was 0.5 to 15 s; in series [5] (setting [10]) it was 0.5 to 10.5 s; in series [5] (setting [11]), 2 to 15 s. The “atrial fibrillation cases terminated” value in series [5] (setting [13]) stood at 100%. Further, the “time within which atrial fibrillation cases are terminated” value in series [5] (setting [13]) is ≤ 8.4 ± 1.9 s. Besides, the “time until transient sinus bradycardia (and AV block) disappeared” value in series [6] (0.04 mg/kg into right ventricular cavity) was ≤ 20 s. Further, the “effect of intravenous injection on heart rhythm” value in series [7] is “caused atrioventricular conduction block and induced atrial fibrillation or flutter”.
